Reference: article PMC8388802, “Study on the Structure-Activity Relationship of an Antimicrobial Peptide, Brevinin-2GUb, from the Skin Secretion of Hylarana guentheri” (Antibiotics, 2021)
In brackets after ≈: the same amount, converted by molar mass. Where a SMILES comes first, the peptide text is derived from it.

Columns and labels:
[1] = tested on: E. coli (ATCC BAA-2340); assay type: cell-based, Escherichia coli
Outline: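 CLSI broth microdilution in Mueller Hinton Broth, with log-phase bacteria diluted to 5 × 10^5 CFU/mL and peptides added from a two-fold DMSO series (512 µM to 1 µM, as dosed; 1% DMSO in well). After overnight growth at 37 °C, absorbance at 550 nm gave the MIC as the lowest concentration showing no growth.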

[2] = tested on: MRSA (NCTC 12493) biofilm; assay type: cell-based, Methicillin-resistant Staphylococcus aureus; conditions: NCTC 12493, 24 h
Protocol: (§1) The anti-biofilm activities of the peptides against S. aureus (ATCC 6538), MRSA (NCTC 12493), E. faecalis (NCTC 12493), E. coli (ATCC CRM 8739), K. pneumoniae (ATCC 43816), and P. aeruginosa (ATCC CRM 9027) were evaluated.
(§2) The bacteria were inoculated in a different medium (Gram-positive bacteria were in TSB and Gram-negative bacteria were in LB) overnight, and the subculture was conducted in the same medium. When the bacteria reached a specific density, 100 µL of the dilution was added to each well of the 96-well microplate. Then 1 µL of peptide at a series of concentrations, the same concentration in the antimicrobial assay, were added into the well together with the bacteria. The plates were put into a moist shaking incubator with a speed of 200 rpm, and the temperature was set at 37 ℃. After a 24-h incubation, the liquid in the wells was aspirated, and each was washed twice by 100 µL PBS. One hundred µL of methanol were added into each well to stabilise the biofilm. After air-drying, 100 µL crystal violet was used to dye the biofilm, and they were dissolved in the 100 µL glacial acidic acid after drying. The solutions were transferred to a new microplate, and the absorbance of each well was tested by a microplate reader (EL808, Biolise BioTek Winooski, Minneapolis, MN, USA) at 595 nm wavelength. MBIC was the minimum concentration of the peptide showing no biofilm formation.
The bacteria were inoculated in a different medium (Gram-positive bacteria were in TSB and Gram-negative bacteria were in LB) overnight, and the subculture was conducted in the same medium. When the bacteria reached a specific density, 100 µL of the dilution was added to each well of the 96-well microplates. The plates were put into a moist shaking incubator with a speed of 200 rpm and the temperature was 37 ℃. […] The solutions were transferred to a new microplate, and the absorbance of each well was tested by a microplate reader (EL808, Biolise BioTek Winooski, Minneapolis, USA) at 595 nm wavelength.

[3] = tested on: E. faecalis (NCTC 12493) biofilm; assay type: cell-based, Enterococcus faecalis; conditions: NCTC 12493, 24 h
Protocol: as §1, §2
The bacteria were inoculated in a different medium (Gram-positive bacteria were in TSB and Gram-negative bacteria were in LB) overnight, and the subculture was conducted in the same medium. When the bacteria reached a specific density, 100 µL of the dilution was added to each well of the 96-well microplates. The plates were put into a moist shaking incubator with a speed of 200 rpm and the temperature was 37 ℃. After a 24 h incubation, the liquid in the wells was aspirated and they were washed twice by 100 µL PBS of each well. The peptides with the same concentrations were diluted in the corresponding medium and 100 µL were added into each well. After a 24-h incubation, the liquid in the wells was aspirated and they were washed twice by 100 µL PBS. One hundred µL of methanol were added into the wells to stabilise the biofilms. After being air-dried, 100 µL crystal violet was used to dye the biofilm, and they were dissolved in the 100 µL glacial acidic acid after drying. The solutions were transferred to a new microplate, and the absorbance of each well was tested by a microplate reader (EL808, Biolise BioTek Winooski, Minneapolis, USA) at 595 nm wavelength.

[4] = tested on: wax moth (Galleria mellonella); test: Toxicity of peptides to waxworms; assay type: in vivo; conditions: uninfected waxworms, 7.5, 15 and 30 mg/kg, injection

| SMILES | MBC [1] | MIC [1] | MBIC [2] | MBEC [3] | MBIC [3] | survival rate of waxworms treated with peptide [4] |
| --- | --- | --- | --- | --- | --- | --- |
| CC[C@H](C)[C@H](NC(=O)[C@@H](NC(=O)CN)C(C)C)C(=O)N[C@H](C(=O)N[C@@H](CCCCN)C(=O)N[C@H](C(=O)N[C@@H](CC(C)C)C(=O)N[C@@H](CCCCN)C(=O)NCC(=O)N[C@@H](C)C(=O)N[C@@H](C)C(=O)N[C@@H](CCCCN)C(=O)N[C@H](C(=O)N[C@H](C(=O)N[C@@H](C)C(=O)N[C@@H](C)C(=O)N[C@@H](CCCCN)C(=O)N[C@@H](CC(C)C)C(=O)N[C@@H](CC(C)C)C(N)=O)C(C)C)[C@@H](C)O)[C@@H](C)O)[C@@H](C)CC [tB2U-K] (H-GVIIKTLKGAAKTVAAKLL-NH2) | 16 µM (≈ 30.3 µg/mL) | 16 µM (≈ 30.3 µg/mL) | 16 µM | > 512 µM | 32 µM | 100% |
| CC[C@H](C)[C@H](NC(=O)[C@@H](NC(=O)CN)C(C)C)C(=O)N[C@H](C(=O)N[C@@H](CCCCN)C(=O)N[C@@H](CCCCN)C(=O)N[C@@H](CC(C)C)C(=O)N[C@@H](CCCCN)C(=O)NCC(=O)N[C@@H](C)C(=O)N[C@@H](C)C(=O)N[C@@H](CCCCN)C(=O)N[C@@H](CCCCN)C(=O)N[C@H](C(=O)N[C@@H](C)C(=O)N[C@@H](C)C(=O)N[C@@H](CCCCN)C(=O)N[C@@H](CC(C)C)C(=O)N[C@@H](CC(C)C)C(N)=O)C(C)C)[C@@H](C)CC [tB2U-6K] (H-GVIIKKLKGAAKKVAAKLL-NH2) | 8 µM (≈ 15.6 µg/mL) | 8 µM (≈ 15.6 µg/mL) | 32 µM | > 512 µM | 64 µM | 100% |
| CC[C@H](C)[C@H](NC(=O)[C@@H](NC(=O)CN)C(C)C)C(=O)N[C@H](C(=O)N[C@@H](CCCCN)C(=O)N[C@H](C(=O)N[C@@H](CC(C)C)C(N)=O)[C@@H](C)O)[C@@H](C)CC [Peptide 7-tB2U-K] (H-GVIIKTL-NH2) | >512 µM | >512 µM |  | >512 µM | >512 µM |  |
| CC[C@H](C)[C@H](NC(=O)[C@@H](NC(=O)CN)C(C)C)C(=O)N[C@H](C(=O)N[C@@H](CCCCN)C(=O)N[C@H](C(=O)N[C@@H](CC(C)C)C(=O)N[C@@H](CCCCN)C(=O)NCC(=O)N[C@@H](C)C(=O)N[C@@H](C)C(=O)N[C@@H](CCCCN)C(=O)N[C@H](C(=O)N[C@H](C(N)=O)C(C)C)[C@@H](C)O)[C@@H](C)O)[C@@H](C)CC [Peptide 14-tB2U-K] (H-GVIIKTLKGAAKTV-NH2) | >512 µM | >512 µM |  | >512 µM | >512 µM |  |
| CC[C@H](C)[C@H](NC(=O)[C@@H](NC(=O)CN)C(C)C)C(=O)N[C@H](C(=O)N[C@@H](CC(=O)O)C(=O)N[C@H](C(=O)N[C@@H](CC(C)C)C(=O)N[C@@H](CCCCN)C(=O)NCC(=O)N[C@@H](C)C(=O)N[C@@H](C)C(=O)N[C@@H](CCCCN)C(=O)N[C@H](C(=O)N[C@H](C(=O)N[C@@H](C)C(=O)N[C@@H](C)C(=O)N[C@@H](CCC(=O)O)C(=O)N[C@@H](CC(C)C)C(=O)N[C@@H](CC(C)C)C(N)=O)C(C)C)[C@@H](C)O)[C@@H](C)O)[C@@H](C)CC [tB2U-α] (H-GVIIDTLKGAAKTVAAELL-NH2) | >512 µM | >512 µM |  | >512 µM | >512 µM |  |
| CC[C@H](C)[C@H](NC(=O)[C@@H](NC(=O)CN)C(C)C)C(=O)N[C@H](C(=O)N[C@@H](CC(=O)O)C(=O)N[C@H](C(=O)N[C@@H](CC(C)C)C(=O)N[C@@H](CCCCN)C(=O)NCC(=O)N[C@@H](C)C(=O)N[C@@H](C)C(=O)N[C@@H](CCCCN)C(=O)N[C@H](C(=O)N[C@H](C(=O)N[C@@H](C)C(=O)N[C@@H](C)C(=O)N[C@@H](CCC(=O)O)C(=O)N[C@@H](CC(C)C)C(=O)N[C@@H](CC(C)C)C(=O)N[C@@H](CCCNC(=N)N)C(=O)N[C@@H](CCCCN)C(=O)N[C@@H](C)C(=O)N[C@@H](Cc1c[nH]cn1)C(N)=O)C(C)C)[C@@H](C)O)[C@@H](C)O)[C@@H](C)CC [tB2U] (H-GVIIDTLKGAAKTVAAELLRKAH-NH2) |  |  |  | > 512 µM | 256 µM |  |
